Columns and labels:
Type in all cases: cell-based
[1] = tested on: E. coli A20683; assay: MIC by two-fold agar dilution; conditions: Mueller-Hinton agar, unit assumed
[2] = tested on: M. flavus D12; assay: MIC by two-fold agar dilution; conditions: Mueller-Hinton agar, unit assumed
[3] = tested on: F. moniliforme NRRL A2284; assay: MIC by two-fold agar dilution; conditions: Fm-1 F. moniliforme NRRL A2284; sabouraud agar; unit assumed
[4] = tested on: S. aureus Smith A9537; assay: MIC by two-fold agar dilution; conditions: Mueller-Hinton agar, unit assumed
[5] = tested on: Mucor sp.; assay: MIC by two-fold agar dilution; conditions: My-1 Mucor sp.; sabouraud agar; unit assumed
[6] = tested on: Mycobacterium 607, D87; assay: MIC by two-fold agar dilution; conditions: Medium #1001, unit assumed
[7] = tested on: P. aeruginosa A20741; assay: MIC by two-fold agar dilution; conditions: Mueller-Hinton agar, unit assumed
[8] = tested on: S. marcescens A20460; assay: MIC by two-fold agar dilution; conditions: Mueller-Hinton agar, unit assumed
[9] = tested on: K. pneumoniae A9678; assay: MIC by two-fold agar dilution; conditions: Mueller-Hinton agar, unit assumed
[10] = tested on: P. rettgeri A15167; assay: MIC by two-fold agar dilution; conditions: Mueller-Hinton agar, unit assumed
[11] = tested on: E. coli Juhl A15119; assay: MIC by two-fold agar dilution; conditions: Mueller-Hinton agar, unit assumed
[12] = tested on: E. coli NIHJ; assay: MIC by two-fold agar dilution; conditions: Mueller-Hinton agar, unit assumed
[13] = tested on: C. albicans IAM 4888; assay: MIC by two-fold agar dilution; conditions: Ca-1 C. albicans IAM 4888; sabouraud agar; unit assumed
[14] = tested on: C. krusei IAM 4489; assay: MIC by two-fold agar dilution; conditions: Ck-1 C. krusei IAM 4489; sabouraud agar; unit assumed
[15] = tested on: P. aeruginosa A9930; assay: MIC by two-fold agar dilution; conditions: Mueller-Hinton agar, unit assumed
[16] = tested on: C. neoformans (Cn-1); assay: MIC by two-fold agar dilution; conditions: Cn-1 C. neoformans; sabouraud agar; unit assumed
[17] = tested on: K. pneumoniae A20328; assay: MIC by two-fold agar dilution; conditions: Mueller-Hinton agar, unit assumed
[18] = tested on: Mycobacterium phlei, D88; assay: MIC by two-fold agar dilution; conditions: Medium #1001, unit assumed
[19] = tested on: T. rubrum D-55; assay: MIC by two-fold agar dilution; conditions: Tr-1 T. rubrum D-55; sabouraud agar; unit assumed
[20] = tested on: B. cereus ATCC 10702A; assay: MIC by two-fold agar dilution; conditions: Mueller-Hinton agar, unit assumed
[21] = tested on: M. canis D-51; assay: MIC by two-fold agar dilution; conditions: Mc-1 M. canis D-51; sabouraud agar; unit assumed
[22] = tested on: Mycobacterium ranae, ATCC110; assay: MIC by two-fold agar dilution; conditions: Medium #1001, unit assumed
[23] = tested on: S. lutea PCI-1001; assay: MIC by two-fold agar dilution; conditions: Mueller-Hinton agar, unit assumed
[24] = tested on: Hormodendrum sp.; assay: MIC by two-fold agar dilution; conditions: Hy-1 Hormodendrum sp.; sabouraud agar; unit assumed
[25] = tested on: S. aureus #193; assay: MIC by two-fold agar dilution; conditions: Mueller-Hinton agar, unit assumed
[26] = tested on: A. niger var Tieghem; assay: MIC by two-fold agar dilution; conditions: An-1 A. niger var Tieghem; sabouraud agar; unit assumed
[27] = tested on: S. cerevisiae IAM 4009; assay: MIC by two-fold agar dilution; conditions: Sc-2 S. cerevisiae IAM 4009; sabouraud agar; unit assumed
[28] = tested on: P. stuartii A20734; assay: MIC by two-fold agar dilution; conditions: Mueller-Hinton agar, unit assumed
[29] = tested on: P. aeruginosa A 9923; assay: MIC by two-fold agar dilution; conditions: Mueller-Hinton agar, unit assumed
[30] = tested on: Sporotrichum sp.; assay: MIC by two-fold agar dilution; conditions: Sy-1 Sporotrichum sp.; sabouraud agar; unit assumed
[31] = tested on: C. albicans Nystatin-R; assay: MIC by two-fold agar dilution; conditions: Ca-2 C. albicans Nystatin-R; sabouraud agar; unit assumed
[32] = tested on: P. stuartii A20894; assay: MIC by two-fold agar dilution; conditions: Mueller-Hinton agar, unit assumed
[33] = tested on: B. mycoides "0"; conditions: Mueller-Hinton agar, unit assumed
[34] = tested on: T. asteroides; assay: MIC by two-fold agar dilution; conditions: Ta-1 T. asteroides; sabouraud agar; unit assumed
[35] = tested on: S. cerevisiae ATCC 9763; assay: MIC by two-fold agar dilution; conditions: Sc-1 S. cerevisiae ATCC 9763; sabouraud agar; unit assumed
[36] = tested on: P. aeruginosa H9, D113; assay: MIC by two-fold agar dilution; conditions: Mueller-Hinton agar, unit assumed
[37] = tested on: S. marcescens A20333; assay: MIC by two-fold agar dilution; conditions: Mueller-Hinton agar, unit assumed
[38] = tested on: S. aureus BX-1633,A9606; assay: MIC by two-fold agar dilution; conditions: Mueller-Hinton agar, unit assumed
[39] = tested on: E. coli K-12 A9632; assay: MIC by two-fold agar dilution; conditions: Mueller-Hinton agar, unit assumed
[40] = tested on: E. cloacae A21006; assay: MIC by two-fold agar dilution; conditions: Mueller-Hinton agar, unit assumed
[41] = tested on: P morganii A9553; assay: MIC by two-fold agar dilution; conditions: Mueller-Hinton agar, unit assumed
[42] = tested on: A. fumigatus IAM 2530; assay: MIC by two-fold agar dilution; conditions: Af-1 A. fumigatus IAM 2530; sabouraud agar; unit assumed
[43] = tested on: B. sphaericus #122; assay: MIC by two-fold agar dilution; conditions: Mueller-Hinton agar, unit assumed
[44] = tested on: S. marcescens A21235; assay: MIC by two-fold agar dilution; conditions: Mueller-Hinton agar, unit assumed
[45] = tested on: C. albicans #520 Yale A9540; assay: MIC by two-fold agar dilution; conditions: Ca-4 C. albicans #520 Yale A9540; sabouraud agar; unit assumed
[46] = tested on: C. krusei #96 A15052; assay: MIC by two-fold agar dilution; conditions: Ck-2 C. krusei #96 A15052; sabouraud agar; unit assumed

Measured: MIC

Cc1c(N)nc([C@H](CC(N)=O)NC[C@@H](N)C(N)=O)nc1C(=O)N[C@H](C(=O)N[C@H](C)[C@@H](O)CC(=O)N[C@@H](C(=O)NC(O[C@@H]1O[C@@H](C)[C@@H](N)[C@@H](O)[C@H]1O)C(O)c1nc(-c2nc(C(=O)NCCCNCCCCN)cs2)cs1)[C@@H](C)O)C(O[C@@H]1O[C@@H](CO)[C@H](O)[C@@H](O)[C@@H]1O[C@H]1O[C@H](CO)[C@@H](O)[C@@H](OC(N)=O)[C@@H]1O)c1cnc[nH]1 (some centres unmarked) [Bu-2231 B Cu-free]
0.4 µg/mL: [2] | [9] | [14] | [23] | [25] | [32] | [42] | [46]
0.1 µg/mL: [6] | [22] | [39]
12.5 µg/mL: [1]
1.6 µg/mL: [17] | [41] | [44] | [45]
6.3 µg/mL: [40]
3.1 µg/mL: [5] | [30]
> 100 µg/mL: [29] | [36]
0.2 µg/mL: [7] | [11] | [12] | [16] | [20] | [24] | [26] | [27] | [33] | [35] | [43]
0.05 µg/mL: [4] | [18]
0.8 µg/mL: all other assays above

Phleomycin [reference compound]
3.1 µg/mL: [5] | [10] | [13] | [15] | [19]
0.1 µg/mL: [4] | [18]
50 µg/mL: [40]
12.5 µg/mL: [3] | [9] | [30]
1.6 µg/mL: [11] | [28] | [31] | [39]
0.2 µg/mL: [2] | [20] | [25] | [33]
0.4 µg/mL: [6] | [16] | [22] | [23] | [26] | [38] | [43]
6.3 µg/mL: [7] | [21] | [34] | [41] | [45]
> 100 µg/mL: [1] | [17] | [29] | [36]
0.8 µg/mL: all other assays above
